The numbers were not newly measured in US20040132663A1 (University of Utah Research Foundation, priority 2000, published 2004), which cites them from elsewhere.

The conditions of the data set: in vivo.

Take contulakin-G: the “potency in inhibiting pain relative to neurotensin” value is “significantly more potent than neurotensin”.
